{
  "source": "patent US9598362B2",
  "about": "“Benzidine derivative, method for preparing same, and pharmaceutical composition containing benzidine derivative for treating liver disease caused by hepatitis C virus” (priority 2013, dated 2017)",
  "test": "Evaluation of physiological activity: pharmacokinetics after oral or intravenous administration",
  "type": "in vivo",
  "conditions": "male mouse, 5 mg/kg; for AUC(0-inf): read-out: AUC0-∞, value up to infinite time from the administration; for half-life: read-out: T1/2 (time) (converted)",
  "method": "The following experiment was performed to evaluate physiological activity of the compound prepared in Example 16 by observing the pharmacokinetic changes.\nParticularly, the compound of Example 16 was orally or intravenously administered to male mouse, followed by observation of the pharmacokinetic changes. For the oral administration, the compound of Example 16 was dissolved to make the concentration 2.5 mg/ml. The prepared compound solution was orally administered at the dose of 5 mg/kg, followed by drawing blood from the jugular vein of the mouse at regular intervals. For the intravenous administration, tubes were inserted in the jugular vein and the femoral vein of male mouse. The compound solution was intravenously injected through the femoral vein at the dose of 5 mg/kg, followed by drawing blood from the mouse at regular intervals. The drawed blood was centrifuged to separate plasma. The plasma and urine samples were pretreated with a proper organic solvent, followed by investigation by LC-MS/MS. At this time, LC-MS/MS was performed by using mass spectrometry (Agilent 6460 QQQ, Agilent), LC lamp (Agilent 1260, Agilent), autosampler (Agilent 1260, Agilent), and data analysis system (Peak Sample Data System, Analyst 1.4.2, Applied Biosystems), and the conditions for LC-MS/MS were as follows; sample injection amount: 10 μl, flow rate: 0.3 ml/min, column: […] C18 column (50 mm×2.0 mm, 12 nm, YMC), elution buffer: acetonitrile: 10 mM ammoniumformate buffer=90:10 (v/v), and MS/MS condition: MPM mode: HCV (m/z 761.8170.1), IS (imipramine, m/z 281.286.2). The blood concentration over the administration period of the compound treated via oral or intravenous administration was analyzed, from which the noncompartmental pharmacokinetic parameter was calculated by using WinNonlin (Pharsight, USA).",
  "note": "Read-outs that look alike come from different tables or passages of the source.",
  "data": [
    {"smiles": "COC(=O)N[C@@H](C(=O)N1CCC[C@H]1C(=O)Nc1ccc(-c2ccc(NC(=O)[C@@H]3CCCN3C(=O)[C@H](NC(=O)OC)c3ccccc3)cc2)cc1)c1ccccc1", "note": "[Example 16, dimethyl(1S,1′S)-2,2′-((2S,2′S)-2,2′-(biphenyl-4,4′-diylbis(azandiyl))bis(oxomethylene)bis(pyrrolidine-2,1-diyl))bis(2-oxo-1-phenylethane-2,1-diyl)dicarbamate]", "values": [
      {"measurement": "AUC0-t", "setting": "intravenous injection", "result": "9160 ± 1030", "unit": "ng·h/mL"},
      {"measurement": "AUC0-∞", "setting": "intravenous injection", "result": "9370 ± 1060", "unit": "ng·h/mL"},
      {"measurement": "AUC0-t", "setting": "oral administration", "result": "1830 ± 565", "unit": "ng·h/mL"},
      {"measurement": "AUC0-∞", "setting": "oral administration", "result": "2500 ± 498", "unit": "ng·h/mL"},
      {"measurement": "Tmax (time)", "setting": "oral administration", "result": "2 ± 1.73", "unit": "time"},
      {"measurement": "Cmax", "setting": "oral administration, plasma", "result": 188, "unit": "ng/mL"},
      {"measurement": "AUC0-t", "setting": "plasma, iv, intravenously injected, read-out: AUC0-24, value up to 24 hours from the administration", "result": 9160, "unit": "ng·h/mL"},
      {"measurement": "AUC(0-inf)", "setting": "plasma, iv, intravenously injected", "result": 9370, "unit": "ng·h/mL"},
      {"measurement": "bioavailability", "setting": "plasma, po relative to iv, printed in the Intravenous Injection column, read-out: Ft, bioavailability", "result": 20, "unit": "%"},
      {"measurement": "AUC0-t", "setting": "plasma, po, orally administered, read-out: AUC0-24, value up to 24 hours from the administration", "result": 1830, "unit": "ng·h/mL"},
      {"measurement": "AUC(0-inf)", "setting": "plasma, po, orally administered", "result": 2500, "unit": "ng·h/mL"},
      {"measurement": "clearance", "setting": "plasma, intravenous injection", "result": 8.97, "unit": "mL/min/kg"},
      {"measurement": "half-life", "setting": "plasma, intravenous injection", "result": "4.09 ± 3.06", "unit": "h"},
      {"measurement": "Vd", "setting": "plasma, intravenous injection, read-out: Vss", "result": "1.31 ± 0.144", "unit": "L/kg"},
      {"measurement": "half-life", "setting": "plasma, oral administration", "result": "15 ± 9.5", "unit": "h"},
      {"measurement": "Tmax", "setting": "plasma, oral administration, read-out: time to reach the maximum concentration (Tmax)", "result": 2, "unit": "h"}
    ]}
  ]
}
